Assay results taken from patent publication US11833225B2, “Methods and compositions for efficient gene deletion” (CRISPR Therapeutics AG, priority 2018, dated 2023).
Several values for one entry are separate records, joined by “and”; a condition that tells them apart may be missing. Equal entries are not always repeated.

Tests used:
Format in all cases: cell-based, human
[1] = test system: CCR5 gene; experiment: CCR5 deletion frequency by ddPCR in edited CD34+ cells
From the text: The C-C chemokine receptor type 5 (CCR5) is a key player in HIV infection due to its major involvement in the infection process. A limited number of people harbor a genomic 32-bp deletion in the CCR5 gene ([…]), leading to expression of a truncated gene product that provides resistance to HIV-1 infection in individuals homozygous for this mutation. Dual gRNAs were designed to target this region of the CCR5 gene. FIG. 8 diagrams the CCR5 gene and the location of TB48 gRNA and TB7 gRNA target sites (bordering a 735 bp deletion).
Human peripheral blood CD34+ cells were cultured and as electroporated with Cas9 and the two gRNAs essentially as described above in Example 1. Nu7441 was delivered to the cells (0, 1.25, 2.5, 5 μM) immediately after electroporation. Deletion efficiency was determined by ddPCR two days after electroporation.
Additional gRNAs were designed to delete larger segments from CCR5, i.e., TB74 and TB 25 for a 5700 bp deletion, and TB48 and TB25 for a 2672 bp deletion (FIG. 10). The gRNAs (and Cas9) were introduced at two dose levels (0.75 or 1.5 μg each) and cells were exposed to 0, 2.5, or 5 μM Nu7441.
Another DNA-PK inhibitor, M3814, was tested to determine whether deletions were increased in its presence. Populations of newly electroporated cells were exposed to four concentrations of M3814 ranging from 0.078 μM to 0.625 μM.

[2] = test system: CD34+ hHSPCs; experiment: Cell viability by Trypan blue
Description: Cell viability was also assessed using Trypan blue, a standard method for detecting hematopoietic stem cell viability.

[3] = test system: HPFH5; experiment: Tracking of Indels by Decomposition (TIDE), single gRNA indel and MMEJ species
Description: Tracking of Indels by Decomposition (TIDE) was utilized to determine if treatment with Nu7441 results in increased single gRNA indels as a result of NHEJ inhibition. This technology precisely determines the spectrum and frequency of indels and MMEJ species generated by single HPFH5-1 gRNA or HPFH5-D gRNAs in the presence of Nu7441 by comparing the results of standard PCR reactions and Sanger sequencing reactions. Cells were electroporated with 1.5 μg Cas and 1.5 μg HPFH5-D or 1.5 μg HPFH5-1 or no gRNA. Cells were treated with 0, 0.625 μM, 1.25 μM, 2.5 μM, or 5 μM Nu7441.

[4] = test system: HPFH5; experiment: HPFH5 deletion frequency by droplet digital PCR (ddPCR) in edited CD34+ hHSPCs; conditions: increased from 30% without inhibitor, dose-dependent, 0.3125-5 μM; Cas9 + dual gRNAs; 48 hours post electroporation
Description: Mobilized human peripheral blood (mPB) CD34+ cells from three independent human donors were cultured in serum free CellGro® media including 100 ng/ml recombinant human stem cell factor (SCF), 100 ng/ml recombinant human Flt 3-Ligand (FLT3L), and 100 ng/ml Thrombopoietin (TPO). 100,000 cells per condition were electroporated using Lonza Amaxa 4D electroporator without any CRISPR/Cas9 editing components as a negative control (mock electroporation sample), with HPFH5-1+HPFH5-D sgRNAs and Cas9 protein (1+D), or with HPFH5-5+HPFH5-D sgRNAs and Cas9 protein (5+D). The recombinant S. pyogenes Cas9 protein was flanked by two SV40 nuclear localization sequences (NLSs). These experiments were performed using a ribonucleoprotein (RNP) 1:1 weight ratio of gRNA to Cas9.
The deletion frequency was determined by droplet digital PCR (ddPCR) two days after electroporation for each cell population (i.e., mock, 1+D, and 5+D).
Dual gRNAs (HPFH5-1 and HPFH-D, or HPFH5-5 and HPFH-D), as well as Cas9 protein, were also titrated in CD34+ hHSPCs. […]
The deletion frequency was determined by droplet digital PCR (ddPCR) two days after electroporation for each of the cells electroporated with HPFH5-1+HPFH5-D gRNAs, or cells electroporated with HPFH5-5+HPFH5-D gRNAs.

[5] = test system: HPFH5; experiment: Colony forming assay (CFU), clonal editing analysed by ddPCR
Description: The effects of Nu7441 on CRISPR-Cas9 gene editing using the dual gRNA approach (HPFH5-1 and HPFH5-D) was measured using a colony forming assay (CFU). CFU assay is an in vitro cellular assay that measures the proliferation and differentiation potential of human HSPCs. Following electroporation with dual gRNAs/Cas9 and treatment with Nu7441 (2.5 μM), CD34+ hHSPCs were diluted and plated in suspension in the presence of methylcellulose to promote stem cell differentiation. After 14 days, colonies grown from single erythroid-lineage HSPCs were analyzed for gene editing by ddPCR (Table 3).

[6] = test system: CD34+ hHSPCs; experiment: Cell proliferation (fold growth) by hemocytometer counting
Description: Cell proliferation was also assessed using a cell counting device (hemocytometer).

[7] = test system: HPFH5; experiment: Single gRNA and Cas9 titration, single guide editing percentage in CD34+ hHSPCs; conditions: 48 hour post-electroporation
From the text: Single HPFH5-1, HPFH5-5 and HPFH5-D gRNAs, as well as Cas9 protein, were titrated in CD34+ hHSPCs to determine the effects on deletion efficiency.

[8] = HPFH5-1 + HPFH5-D gRNAs/Cas9 + 2.5 μM Nu7441
[9] = HPFH5-1 + HPFH5-D gRNAs/Cas9 + 2.5 μM Nu7441, colonies after 14 days

COc1ccc([C@@H](O)c2cc(-c3ncnc4cc(N5CCOCC5)ccc34)c(F)cc2Cl)nn1 [M3814, (S)-(2-chloro-4-fluoro-5-(7-morpholinoquinazolin-4-yl)phenyl)(6-methoxypyridazin-3-yl)methanol]
percentage of deletions in CCR5 ([1]; four concentrations from 0.078 μM to 0.625 μM, TB74+TB25 or TB48+TB25 gRNAs, 48 hours post electroporation): increased in a dose-dependent manner
percentage increase in deletions in CCR5 compared with Nu7441 ([1]; highest concentration (0.625 μM)): about the same percentage increase in deletions as Nu7441

O=c1cc(N2CCOCC2)oc2c(-c3cccc4c3sc3ccccc34)cccc12 [Nu7441, 8-(4-dibenzothienyl)-2-(4-morpholinyl)-4H-1-benzopyran-4-one]
cell viability ([2]; CCR5 editing with TB48 + TB7 gRNAs, highest concentration (5 μM)): decreased slightly
cell viability ([2]; concentrations of less than 5 μM, 48 hours post electroporation, HPFH5 dual gRNAs): did not adversely affect cell viability
cell viability ([2]; highest dose 5 μM, HPFH5 dual gRNAs): slightly reduced
potential microhomology-mediated end joining (MMEJ) species ([3]; Cas9 and HPFH5 gRNA): increased
effect on single guide editing (indel frequency) ([3]; HPFH5-1 gRNA 1.5 μg + Cas9 1.5 μg, 0.625-5 μM): not major effects
effect on indel frequency ([3]; HPFH5-D gRNA 1.5 μg + Cas9 1.5 μg, higher concentrations): increased indel frequency
number of wild-type sequences in HPFH5 relative to untreated cells ([3]; HPFH5-D gRNA, 5 μM): decrease
percentage of 10-15 base pair deletions relative to untreated cells ([3]; HPFH5-D gRNA, 5 μM): increase
HPFH5 deletion efficiency reached with Nu7441 [4]: 45% and 40%
increase of percentage of HPFH5 heterozygotes relative to untreated cells ([5]; 2.5 μM Nu7441): 3 fold
% Alleles edited from clones [5, 8]: 40%
% Edited cells [5, 8]: 63%
Bulk editing from ddPCR [5, 8]: 43%
% Heterozygotes [5, 9]: 46.2%
% Homozygotes [5, 9]: 17.3%
% WT [5, 9]: 36.5%
# Edited alleles ([5]; HPFH5-1 + HPFH5-D gRNAs/Cas9 + 2.5 μM Nu7441, of 104 total alleles (52 clones)): 42
increase of number of alleles edited from clones ([5]; in the presence of Nu7441 (2.5 μM)): 2 fold
cell proliferation (fold growth) ([6]; concentrations of less than 5 μM, 48 hours post electroporation): did not adversely affect cell proliferation
cell proliferation ([6]; highest concentration (5 μM)): reduced
frequency of deletion in CCR5 ([1]; TB48 + TB7 gRNAs (735 bp deletion), 0, 1.25, 2.5, 5 μM, two days after electroporation): increased the frequency of deletion in CCR5 in a dose-dependent manner
increase of percent of deletions in CCR5 ([1]; TB48 + TB7 gRNAs, highest dose (5 μM)): more than two-fold
increase of the percent of deletions in CCR5 ([1]; TB74 + TB25 (5700 bp) and TB48 + TB25 (2672 bp) gRNAs, 0.75 or 1.5 μg each, 2.5 or 5 μM, all conditions): 20-70%

B1: HPFH5-1: 3′ gRNA targeting the HPFH5 locus, SEQ ID NO: 2, used with Cas9 protein (nucleic acid)
guide: AUUUUUCUUAUUCAAUACCUGUUUUAGAGCUAGAAAUAGCAAGUUAAAAUAAGGCUAGUCCGUUAUCAACUUGAAAAAGUGGCACCGAGUCGGUGCUUUU
modifications: listed as RNA, chemistry not given here
% Single Guide Editing ([7]; gRNA 1 μg, Cas9 1 μg): 35.6%
% Single Guide Editing ([7]; gRNA 2 μg, Cas9 2 μg): 62.9%
% Single Guide Editing ([7]; gRNA 3 μg, Cas9 3 μg): 72.1%
% Single Guide Editing ([7]; gRNA 4 μg, Cas9 4 μg): 75.7%

B2: HPFH5-D: 5′ gRNA targeting the HPFH5 locus, SEQ ID NO: 6, used with Cas9 protein (nucleic acid)
guide: CUGUUGGUUUCAGAGCAGGUGUUUUAGAGCUAGAAAUAGCAAGUUAAAAUAAGGCUAGUCCGUUAUCAACUUGAAAAAGUGGCACCGAGUCGGUGCUUUU
modifications: listed as RNA, chemistry not given here
% Single Guide Editing ([7]; gRNA 1 μg, Cas9 1 μg): 20.8%
% Single Guide Editing ([7]; gRNA 2 μg, Cas9 2 μg): 61.4%
% Single Guide Editing ([7]; gRNA 3 μg, Cas9 3 μg): 70.9%
% Single Guide Editing ([7]; gRNA 4 μg, Cas9 4 μg): 80.4%

B3: HPFH5-5: 3′ gRNA targeting the HPFH5 locus, SEQ ID NO: 4, used with Cas9 protein (nucleic acid)
guide: CUCCCCCACUCACAGUGACCGUUUUAGAGCUAGAAAUAGCAAGUUAAAAUAAGGCUAGUCCGUUAUCAACUUGAAAAAGUGGCACCGAGUCGGUGCUUUU
modifications: listed as RNA, chemistry not given here
% Single Guide Editing ([7]; gRNA 1 μg, Cas9 1 μg): 40.5%
% Single Guide Editing ([7]; gRNA 2 μg, Cas9 2 μg): 56.5%
% Single Guide Editing ([7]; gRNA 3 μg, Cas9 3 μg): 60.3%
% Single Guide Editing ([7]; gRNA 4 μg, Cas9 4 μg): 66.3%
